Here are results for 61 compounds from PubChem BioAssay AID1645868 (Buhrlage Lab, Dana-Farber Cancer Institute and Novartis …, 2021).

Activity calls are given as the source filed them.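 How the source made its calls: active means maximal percent inhibition of the deubiquitinase OTUD3 of at least 30% across the tested doses; inactive means the rest.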

The target in this test is OTU domain-containing protein 3 (Homo sapiens) (UniProt Q5T2D3). Nature of the test: Validation of screening hits, potency titration, in vitro enzymatic, OTU domain-containing protein 3 DUB inhibitors (AID 1645868). Conditions: purified OTUD3, ubiquitin-rhodamine cleavage fluorescence, 2 h.
OTU domain-containing protein 3 (Homo sapiens), sequence (Q5T2D3 whole entry, looked up, the tested form may be a part): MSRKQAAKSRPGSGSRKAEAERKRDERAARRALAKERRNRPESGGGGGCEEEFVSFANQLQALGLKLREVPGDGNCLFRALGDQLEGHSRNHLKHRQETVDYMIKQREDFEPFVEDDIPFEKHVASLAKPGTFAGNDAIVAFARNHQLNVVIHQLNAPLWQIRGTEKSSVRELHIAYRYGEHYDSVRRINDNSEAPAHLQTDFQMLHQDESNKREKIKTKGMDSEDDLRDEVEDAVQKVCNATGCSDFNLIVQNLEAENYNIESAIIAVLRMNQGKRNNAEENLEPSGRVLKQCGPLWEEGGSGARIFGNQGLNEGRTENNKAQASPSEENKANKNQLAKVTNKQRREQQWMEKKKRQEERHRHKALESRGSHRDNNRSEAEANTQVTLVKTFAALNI
In the case of `Cc1ccc(C(=O)Nc2ccc3nccnc3c2)cc1`, the IC50 (in general, the concentration that gives 50% inhibition) is > 50 µM (inactive).

Consider `Nc1c(-c2nc(-c3ccc4c(c3)OCO4)cs2)nnn1-c1ccccc1`, for which the IC50 is > 50 µM (inactive).

For the compound `O=S(=O)(Nc1ccc(O)cc1)c1ccc2oc3ccc(S(=O)(=O)Nc4ccc(O)cc4)cc3c2c1`, the IC50 was 46.1 µM.

Turning to `Cc1cc(C(=O)COC(=O)c2ccc[nH]c2=O)c(C)n1-c1ccc2c(c1)OCO2`, the IC50 was > 50 µM (inactive).

Turning to `CCOCCCn1c(SCC(=O)Nc2ccccc2C(F)(F)F)nc2ccccc2c1=O`, the IC50 is 19.4 µM.

On to `Cc1cc(C(=O)N2CCOC3(CC=CCN(CCc4ccccc4)C3=O)C2)n2nccc2n1` (stereo unspecified), for which the IC50 was > 50 µM (inactive).

Take `O=C(CSc1nc2cc(C(F)(F)F)ccc2s1)NCC(=O)c1ccccc1`: the IC50 is 22 µM.

On to `CSc1ncc(C(=O)NC(C)c2ccccc2)c(-c2ccccc2)n1` (stereo unspecified), for which the IC50 is 22.1 µM.

Consider `O=c1c(NCCCN2CCCC2)nc2ccncc2n1Cc1ccccc1`, for which the IC50 was > 50 µM (inactive).

As for `COc1ccc(-c2cc3c(=O)n(CC(=O)Nc4ccccc4F)ccn3n2)cc1OC`, the IC50 was > 50 µM (inactive).

For the compound `O=C(CC1C(=O)N(Cc2ccccc2)c2nc3ccccc3n21)NCCc1ccccc1` (stereo unspecified), the IC50 is 19.7 µM.

`CCOc1ccc(CCNC(=O)c2ccc3c(c2)N(CC)C(=O)c2ccccc2S3)cc1OCC`: the IC50 was > 50 µM (inactive).

With `Cc1ccc(Cn2c(=O)c3ccccc3n3c(CCC(=O)N4CCN(c5ccccn5)CC4)nnc23)cc1`, the IC50 is 9.18 µM.

Take `O=C(NC1(O)C(=O)c2ccccc2C1=O)c1cccc2c1-c1ccccc1C2=O`: the IC50 was 35.1 µM.

As to `Cc1c(CC(=O)N2CCN(c3ncccn3)CC2)c(=O)oc2cc(O)ccc12`, the IC50 was 34.1 µM.

For `Cc1ccc(-n2c(=O)c3ccccc3n(Cc3c(F)cccc3Cl)c2=O)cc1`, the IC50 is > 50 µM (inactive).

On to `O=C(OCc1ccc(Br)cc1)c1ccc2ccccc2n1`, for which the IC50 is > 50 µM (inactive).

On to `CCOc1cc(C2C3=C(CC(C)(C)CC3=O)Nc3onc(C)c32)ccc1O` (stereo unspecified), for which the IC50 is > 50 µM (inactive).

Consider `CSc1nc(Cc2ccc(Cl)cc2)nc2ccccc12`, for which the IC50 was > 50 µM (inactive).

For the compound `Cc1nn(Cc2ccccc2)c(Cl)c1C(=O)NC1CCCc2ccccc21` (stereo unspecified), the IC50 was > 50 µM (inactive).

For `Cc1ccc(NC(=O)c2cc(-c3cccnc3)n(-c3ccccc3)n2)nc1`, the IC50 was > 50 µM (inactive).

On to `CC(C)=CCC/C(C)=C/C[C@]1(O)C(=O)c2cc(O)cc(O)c2C(=O)[C@@]1(Cl)CC=C(C)C`, for which the IC50 was > 50 µM (inactive).

For the compound `O=C(NCc1ccc2c(c1)OCO2)c1nnc(Cc2ccc(F)cc2)o1`, the IC50 was > 50 µM (inactive).

`Cc1cc(/C=C2/C(=N)N3C(c4ccccc4)=CSC3=NC2=O)c(C)n1-c1ccc2ccccc2c1`: the IC50 is > 50 µM (inactive).

For the compound `CC(=O)CN1CC2(CCN(Cc3ccc(F)cc3)CC2)COc2ccccc2S1(=O)=O`, the IC50 was > 50 µM (inactive).

For the compound `COc1ccc(NCc2cc(=O)n3[nH]c(NCc4ccc(C(C)C)cc4)nc3n2)cc1`, the IC50 is > 50 µM (inactive).

As for `O=C(Nc1ccc2c(c1)OCCO2)C1CCN(C(=O)c2cc(-c3cccnc3)n[nH]2)CC1`, the IC50 is > 50 µM (inactive).

For `Fc1cccc(-n2cc(-c3noc(-c4ccccn4)n3)nn2)c1`, the IC50 is 27 µM.

As for `Cc1nnc(C(=O)Nc2ccc(C(=O)NCc3ccccc3C)cc2)s1`, the IC50 was 28.5 µM.

Consider `Cc1cccc(OCCn2c(CCNC(=O)C3CCCCC3)nc3ccccc32)c1`, for which the IC50 is 32.8 µM.

`c1ccc(-n2nnc(-c3noc(-c4ccccn4)n3)c2-c2ccncc2)cc1`: the IC50 was 38.7 µM.

On to `O=C(O)c1nccnc1C(=O)N1CCc2ccccc2C1`, for which the IC50 was > 50 µM (inactive).

With `O=C(Nc1ccccc1)C1CCCN(C(=O)c2cc3ccccc3[nH]2)C1` (stereo unspecified), the IC50 is 43.2 µM.

As for `Cc1cc2nc(Oc3cccc(Cl)c3)c3ccccc3n2n1`, the IC50 was > 50 µM (inactive).

`C[C@]12C(=O)N(c3ccc(C(=O)NCc4ccc(F)cc4)cc3)C(=O)N1CCc1c2[nH]c2ccccc12`: the IC50 is > 50 µM (inactive).

With `COc1ccc(-n2c(=O)c(CCC(=O)O)nc3ccccc32)cc1`, the IC50 was > 50 µM (inactive).

As to `Cc1nn(-c2ccccc2)c2c1N=C1C(Cl)=CC(Cl)=CN1C21C(=O)Nc2ccccc21` (stereo unspecified), the IC50 was > 50 µM (inactive).

In the case of `CCn1cc(-c2nc(-c3ccccn3)no2)c(=O)c2cc(F)ccc21`, the IC50 was > 50 µM (inactive).

As for `NC(=O)CCC(=O)N[C@H]1C[C@H]2CN(Cc3ccccc3)c3ccccc3CN2C1`, the IC50 is > 50 µM (inactive).

Turning to `Cc1cc(Cl)c2c(c1)[C@]1(C(=O)N2)N2CCC[C@H]2[C@@H](C(=O)c2cc3ccccc3o2)[C@]12C(=O)Nc1ccccc12`, the IC50 was > 50 µM (inactive).

As to `Cc1ccc(-c2nnc(-n3ncc(C#N)c3N)c3ccccc23)cc1C`, the IC50 was > 50 µM (inactive).

With `CC1CCCN(S(=O)(=O)c2cc3cc(F)ccc3oc2=O)C1` (stereo unspecified), the IC50 was > 50 µM (inactive).

`COc1cccc2cc(C(=O)Nc3nc(-c4ccncc4)cs3)oc12`: the IC50 was 1.51 µM.

Turning to `Cc1ccc(Nc2nc(Nc3cccc(F)c3)nc3nccnc23)c(C)c1`, the IC50 is > 50 µM (inactive).

In the case of `COc1ccc(CCNC(=O)c2cc(C3CC3)nc3c2cnn3C(C)C)cc1`, the IC50 is > 50 µM (inactive).

With `COc1cc(C(=O)NC(Cc2ccccc2)c2nc3ccccc3[nH]2)cc(OC)c1OC` (stereo unspecified), the IC50 was 2.99 µM.

For `O=C(Nc1ccc2c(c1)OCCO2)c1cc(CN2CCOCC2)on1`, the IC50 was > 50 µM (inactive).

Consider `COCCNC(=O)c1ccnn1-c1ccc2ccc(-c3cccnc3)cn12`, for which the IC50 was > 50 µM (inactive).

For `CCOc1ccc2c(c1)c(=O)c(C(=O)c1ccc(C)cc1)cn2CC(=O)Nc1ccc(OC)cc1`, the IC50 was > 50 µM (inactive).

`Cc1cn[nH]c1C1COCCN1C(=O)c1ccc2ncccc2c1` (stereo unspecified): the IC50 is > 50 µM (inactive).

Consider `O=C(CN1CCCCC1)Nc1nnc(-c2ccc([N+](=O)[O-])cc2)s1`, for which the IC50 is 18.9 µM.

For the compound `COc1ccccc1-c1nc2c3c(C)c(C)n(-c4ccc(Br)cn4)c3ncn2n1`, the IC50 is > 50 µM (inactive).

As to `COc1c2n(c3ccccc13)[C@@]1(O)C(=O)N(C)C(=O)[C@@]1(O)c1c-2n(C)c2ccc(Cl)cc12`, the IC50 was > 50 µM (inactive).

For `CCN1C(SCc2ccccc2F)=NS(=O)(=O)c2ccccc21`, the IC50 is > 50 µM (inactive).

For the compound `O=C(NC1CCCCC1)c1cc2c(cn1)[nH]c1ccccc12`, the IC50 is > 50 µM (inactive).

Regarding `COc1ccc(/C=C\c2nccc3c2[nH]c2ccccc23)cc1`, the IC50 is > 50 µM (inactive).

Consider `Cc1nc2c3ccccc3nc(NCc3ccc4c(c3)OCO4)n2n1`, for which the IC50 is > 50 µM (inactive).

As for `COc1cccc(NC(=O)c2ccc(F)cc2Cl)c1`, the IC50 was > 50 µM (inactive).

Take `CSc1ccc(CNC(=O)CC2CCN(S(=O)(=O)c3ccc(C)cc3)CC2)cc1`: the IC50 is 30.7 µM.

`CC1=C(c2ccc(F)cc2)S(=O)(=O)NC1=NCC(=O)Nc1ccc(F)cc1`: the IC50 is > 50 µM (inactive).

For `CCN(Cc1ccccc1)S(=O)(=O)c1ccc(C(=O)Nc2ccc3c(c2)OCCO3)cc1`, the IC50 was > 50 µM (inactive).
